What was measured:
[1] = The drug is tested on Blautia hansenii strain: DSM20583 for biotransformation. The drug concentrations were measured before and after a 12-h incubation by liquid-chromatography-coupled mass spectrometry (LC–MS); conditions: 2 µM
[2] = bacteroides thetaiotaomicron, 12 h, 2 µM
Description: The drug is tested on Bacteroides thetaiotaomicron strain: VPI-5482 for biotransformation. The drug concentrations were measured before and after a 12-h incubation by liquid-chromatography-coupled mass spectrometry (LC–MS)

[3] = The drug is tested on Clostridium sp. strain: fecal isolate for biotransformation. The drug concentrations were measured before and after a 12-h incubation by liquid-chromatography-coupled mass spectrometry (LC–MS); conditions: 2 µM
[4] = The drug is tested on Providencia stuartii strain: ATCC25827 for biotransformation. The drug concentrations were measured before and after a 12-h incubation by liquid-chromatography-coupled mass spectrometry (LC–MS); conditions: 2 µM
[5] = enterocloster bolteae, 12 h, 2 µM
Description: The drug is tested on Clostridium bolteae strain: ATCCBAA-613 for biotransformation. The drug concentrations were measured before and after a 12-h incubation by liquid-chromatography-coupled mass spectrometry (LC–MS)

[6] = limosilactobacillus reuteri cf48-3a, 12 h, 2 µM
Description: The drug is tested on Lactobacillus reuteri CF48-3A strain: BEI HM-102 for biotransformation. The drug concentrations were measured before and after a 12-h incubation by liquid-chromatography-coupled mass spectrometry (LC–MS)

[7] = The drug is tested on Providencia rettgeri strain: DSM1131 for biotransformation. The drug concentrations were measured before and after a 12-h incubation by liquid-chromatography-coupled mass spectrometry (LC–MS); assay type: ADME; set-up: dose 2 uM, timepoint 0 vs 12 hours; conditions: 2 µM
[8] = The drug is tested on Bifidobacterium longum subsp. Infantis strain: CCUG52486 for biotransformation. The drug concentrations were measured before and after a 12-h incubation by liquid-chromatography-coupled mass spectrometry (LC–MS); conditions: 2 µM
[9] = The drug is tested on Collinsella intestinalis strain: DSM13280 for biotransformation. The drug concentrations were measured before and after a 12-h incubation by liquid-chromatography-coupled mass spectrometry (LC–MS); conditions: 2 µM
[10] = The drug is tested on Ruminococcus gnavus strain: ATCC29149 for biotransformation. The drug concentrations were measured before and after a 12-h incubation by liquid-chromatography-coupled mass spectrometry (LC–MS); conditions: mediterraneibacter gnavus, 2 µM
[11] = bacteroides eggerthii, 12 h, 2 µM
Description: The drug is tested on Bacteroides eggerthii strain: DSM20697 for biotransformation. The drug concentrations were measured before and after a 12-h incubation by liquid-chromatography-coupled mass spectrometry (LC–MS)

[12] = victivallis vadensis, 12 h, 2 µM
Description: The drug is tested on Victivallis vadensis strain: ATCC BAA-548 for biotransformation. The drug concentrations were measured before and after a 12-h incubation by liquid-chromatography-coupled mass spectrometry (LC–MS)

[13] = The drug is tested on Clostridium asparagiforme strain: DSM15981 for biotransformation. The drug concentrations were measured before and after a 12-h incubation by liquid-chromatography-coupled mass spectrometry (LC–MS); assay type: ADME; set-up: dose 2 uM, timepoint 0 vs 12 hours; conditions: enterocloster asparagiformis, 2 µM
[14] = The drug is tested on Eubacterium hallii strain: DSM3353 for biotransformation. The drug concentrations were measured before and after a 12-h incubation by liquid-chromatography-coupled mass spectrometry (LC–MS); conditions: anaerobutyricum hallii, 2 µM
[15] = The drug is tested on Bacteroides fragilis strain: ATCC43859 for biotransformation. The drug concentrations were measured before and after a 12-h incubation by liquid-chromatography-coupled mass spectrometry (LC–MS); conditions: 2 µM
[16] = segatella copri, 12 h, 2 µM
Description: The drug is tested on Prevotella copri strain: DSM18205 for biotransformation. The drug concentrations were measured before and after a 12-h incubation by liquid-chromatography-coupled mass spectrometry (LC–MS)

[17] = bacteroides stercoris, 12 h, 2 µM
Description: The drug is tested on Bacteroides stercoris strain: ATCC43183 for biotransformation. The drug concentrations were measured before and after a 12-h incubation by liquid-chromatography-coupled mass spectrometry (LC–MS)

[18] = The drug is tested on Enterococcus faecalis strain: V583 for biotransformation. The drug concentrations were measured before and after a 12-h incubation by liquid-chromatography-coupled mass spectrometry (LC–MS); conditions: 2 µM
[19] = The drug is tested on Bacteroides fragilis strain: HMW615 for biotransformation. The drug concentrations were measured before and after a 12-h incubation by liquid-chromatography-coupled mass spectrometry (LC–MS); conditions: 2 µM
[20] = The drug is tested on Bacteroides cellulosilyticus strain: DSM14838 for biotransformation. The drug concentrations were measured before and after a 12-h incubation by liquid-chromatography-coupled mass spectrometry (LC–MS); conditions: 2 µM

SMILES | Bacterial Biotransformation [1] | Bacterial Biotransformation [2] | Bacterial Biotransformation [3] | Bacterial Biotransformation [4] | Bacterial Biotransformation [5] | Bacterial Biotransformation [6] | Bacterial Biotransformation [7] | Bacterial Biotransformation [8] | Bacterial Biotransformation [9] | Bacterial Biotransformation [10] | Bacterial Biotransformation [11] | Bacterial Biotransformation [12] | Bacterial Biotransformation [13] | Bacterial Biotransformation [14] | Bacterial Biotransformation [15] | Bacterial Biotransformation [16] | Bacterial Biotransformation [17] | Bacterial Biotransformation [18] | Bacterial Biotransformation [19] | Bacterial Biotransformation [20]
COc1c(C)c2c(c(O)c1C/C=C(\C)CCC(=O)OCCN1CCOCC1)C(=O)OC2 [MYCOPHENOLATE MOFETIL] | Compound metabolized | Compound metabolized | Compound metabolized | Compound metabolized | Compound metabolized | Compound metabolized | Compound metabolized | Compound metabolized | Compound metabolized | Compound metabolized | Compound metabolized | Compound metabolized | Compound metabolized | Compound metabolized | Compound metabolized | Compound metabolized | Compound metabolized | Compound metabolized | Compound metabolized | Compound metabolized
CCOC(=O)C1=C(C)NC(C)=C(C(=O)OC)C1c1cccc([N+](=O)[O-])c1 (stereo not given) [NITRENDIPINE] | Compound metabolized | Compound metabolized | Compound metabolized | Compound NOT metabolized | Compound metabolized | Compound metabolized | Compound metabolized | Compound metabolized | Compound metabolized | Compound metabolized | Compound metabolized | Compound metabolized | Compound metabolized | Compound metabolized | Compound metabolized | Compound metabolized | Compound metabolized | Compound metabolized | Compound metabolized | Compound metabolized
CNC(=C[N+](=O)[O-])NCCSCc1csc(CN(C)C)n1 [NIZATIDINE] | Compound metabolized | Compound NOT metabolized | Compound metabolized | Compound metabolized | Compound metabolized | Compound NOT metabolized | Compound NOT metabolized | Compound metabolized | Compound metabolized | Compound metabolized | Compound metabolized | Compound NOT metabolized | Compound metabolized | Compound metabolized | Compound NOT metabolized | Compound metabolized | Compound NOT metabolized | Compound metabolized | Compound metabolized | Compound metabolized
COc1ccc2[nH]c([S+]([O-])Cc3ncc(C)c(OC)c3C)nc2c1 (stereo not given) [OMEPRAZOLE] | Compound metabolized | Compound metabolized | Compound metabolized | Compound metabolized | Compound metabolized | Compound metabolized | Compound metabolized | Compound metabolized | Compound metabolized | Compound metabolized | Compound metabolized | Compound metabolized | Compound metabolized | Compound metabolized | Compound metabolized | Compound metabolized | Compound metabolized | Compound metabolized | Compound metabolized | Compound metabolized

The remaining lines, values ahead:

Bacterial Biotransformation [1] | Bacterial Biotransformation [2] | Bacterial Biotransformation [3] | Bacterial Biotransformation [4] | Bacterial Biotransformation [5] | Bacterial Biotransformation [6] | Bacterial Biotransformation [7] | Bacterial Biotransformation [8] | Bacterial Biotransformation [9] | Bacterial Biotransformation [10] | Bacterial Biotransformation [11] | Bacterial Biotransformation [12] | Bacterial Biotransformation [13] | Bacterial Biotransformation [14] | Bacterial Biotransformation [15] | Bacterial Biotransformation [16] | Bacterial Biotransformation [17] | Bacterial Biotransformation [18] | Bacterial Biotransformation [19] | Bacterial Biotransformation [20] | SMILES
Compound metabolized | Compound metabolized | Compound metabolized | Compound metabolized | Compound metabolized | Compound metabolized | Compound metabolized | Compound metabolized | Compound metabolized | Compound metabolized | Compound metabolized | Compound metabolized | Compound metabolized | Compound metabolized | Compound metabolized | Compound metabolized | Compound metabolized | Compound metabolized | Compound metabolized | Compound metabolized | COc1ccnc(C[S+]([O-])c2nc3ccc(OC(F)F)cc3[nH]2)c1OC (stereo not given) [PANTOPRAZOLE]
Compound metabolized | Compound NOT metabolized | Compound metabolized | Compound NOT metabolized | Compound NOT metabolized | Compound NOT metabolized | Compound NOT metabolized | Compound metabolized | Compound metabolized | Compound metabolized | Compound NOT metabolized | Compound NOT metabolized | Compound metabolized | Compound metabolized | Compound NOT metabolized | Compound metabolized | Compound NOT metabolized | Compound metabolized | Compound NOT metabolized | Compound metabolized | CNC(=C[N+](=O)[O-])NCCSCc1ccc(CN(C)C)o1 [RANITIDINE]
Compound metabolized | Compound metabolized | Compound metabolized | Compound NOT metabolized | Compound metabolized | Compound NOT metabolized | Compound NOT metabolized | Compound metabolized | Compound metabolized | Compound metabolized | Compound metabolized | Compound metabolized | Compound metabolized | Compound metabolized | Compound metabolized | Compound metabolized | Compound metabolized | Compound metabolized | Compound metabolized | Compound metabolized | CCS(=O)(=O)CCn1c([N+](=O)[O-])cnc1C [TINIDAZOLE]

Reference: ChEMBL document CHEMBL5303573, “Mapping human microbiome drug metabolism by gut bacteria and their genes” (Nature, 2019)
